Source: US20200253929A1, “TREATMENT OF EPILEPSY” (priority 2017, published 2020)

Columns and labels:
[1] = system: zebrafish larvae; assay: Zebrafish toxicity evaluation (maximum tolerated concentration); assay type: in vivo, Danio rerio; conditions: up to 18 hours exposure, 100 μg/mL used where no MTC was reached
Experimental: In case no MTC was reached, 100 μg/mL was used as the test concentration. In line with studies previously reported [Baraban et al. (2005) Neurosci 131, 759-768; Afrikanova et al. (2013) PLoS One 8, e54166], addition of the GABAA-receptor antagonist PTZ to the swimming water of 7 days post-fertilization (dpf) zebrafish larvae strongly elevated larval locomotion (p≤0.001) (FIGS. 2 and 3) as a result of induced seizures (or seizure-like behavior) that were recognized as typical high-speed swimming, whirlpool-like circling, clonus-like seizures, and loss of posture, as previously described in Baraban et al cited above.
Maximum tolerated concentration (MTC) was determined prior to further experiments and used as the highest test concentration. MTC was investigated by exposing 12 larvae of 6 days post-fertilization (dpf) to a range of concentrations in a 100 μL volume during 18 hours. The following parameters were investigated after 2 and 18 hours of exposure: touch response, morphology, posture, edema, signs of necrosis, swim bladder, and heartbeat. […] In case MTC was not reached, 100 μg/mL was used as the highest test concentration.

[2] = system: NMRI mice; assay: Mouse 6-Hz (44 mA) psychomotor seizure model; assay type: in vivo; conditions: for mean seizure duration / mice protected against induced seizures: 30 min before electrical stimulation
From the text: Although the zebrafish model has a high degree of genetic, physiological and pharmacological conservation^13, it is more distinct from humans than mammals. Therefore, we were interested to see if the observed antiseizure properties of azaspirofuran A and pseurotin A2 would translate to a rodent model. The mouse 6-Hz (44 mA) psychomotor seizure model was chosen, because it can detect compounds with novel antiseizure mechanisms and with potential against drug-resistant seizures [Barton et al. (2001) Epilepsy Res 47, 217-227; Wilcox et al. (2013) Epilepsia 54 S4, 24-34]. In this model drug-resistant focal impaired awareness seizures [Fisher et al. (2017) Epilepsia 58, 531-542], previously referred to as complex partial or psychomotor seizures [Holcomb and Dean (2011) Psychomotor Seizures, In Encyclopedia of Child Behavior and Development (Goldstein, S., and Naglieri, J. A., Eds.), pp 1191-1192, Springer US, Boston, Mass.], are induced by low frequency, long duration corneal electrical stimulation (6 Hz, 0.2 ms rectangular pulse width, 3 s duration, 44 mA) and are characterized by stun, twitching of the vibrissae, forelimb clonus, and Straub tail. […] Stimulated mice with a seizure duration shorter than 27 seconds were thus considered to be protected. […] Besides, this study provides another example of the translation of results from zebrafish to rodent seizure models.
Experimental procedure was described in Copmans et al. (2018) Neurochem. Int. 112, 124-133. before Buenafe et al. cited above; Orellana-Paucar cited above. In brief, NMRI mice (average weight 28 g, range 23-32 g) were randomly divided into control and treatment groups (n=5-10). 50 μL (injection volume was adjusted to the individual weight) of VHC (PEG200:DMSO:water; 0.25:0.25:0.5) or treatment (an ASD or test compound dissolved in VHC) was i.p. injected in mice and after 30 or 120 (in case of phenytoin, as reported by Barton et al. cited above) min psychomotor seizures were induced by low frequency, long duration corneal electrical stimulation (6 Hz, 0.2 ms rectangular pulse width, 3 s duration, 44 mA) using an ECT Unit 5780 (Ugo Basile, Comerio, Italy). Mice were manually restrained and a drop of ocular anesthetic (0.5% lidocaine) was applied to the corneas before stimulation. Following electrical current stimulation, the mouse was released in a transparent cage for behavioral observation, which was video-recorded. […] In addition, facial and mouth jerking as well as head nodding were observed occasionally. Mice displaying normal exploratory and locomotion behavior within a time period of 26 seconds were considered to be protected against the induced psychomotor seizures. Seizure durations were measured during the experiment by experienced researchers, familiar with the different seizure behaviors. In addition, seizure durations were determined by blinded video analysis to confirm or correct the initial observations. Data are expressed as mean±SD.

[3] = system: SHSY5Y cells; assay: Cell viability MTT assay, SHSY5Y cells; assay type: cell-based, human; conditions: 24 h incubation; for IC50: read-out: Cytotoxicity SHSY5Y cells IC50
Experimental: Protocol was based on literature [Patel and Patel. (2011) J. App. Pharm. Sci 1, 167-171]. Three cell lines were used: a) Hep G2 (HB-8065), a well-differentiated human hepatocellular carcinoma cell line, b) THLE-2, human liver epithelial cells transformed with SV40 large T-antigen and c) SHSYSY, a thrice-cloned sub-line of a human metastatic bone tumor. Cells were seeded at a concentration of 1×10^4 cells/well in 200 μL culture medium and incubated at 37° C. in 5% CO2 using 96-well plates for 24 h. Next, the medium was replaced with medium complemented with test compounds. After another 24 h incubation, the medium was replaced by 100 μL of a MTT (3-(4,5-dimethylthiazol-2-yl)-2,5-diphenyltetrazolium bromide) solution (5 mg/mL in PBS and diluted at 0.5 mg/mL in MEM without phenol red). The plates were gently shaken and incubated for 3 hours at 37° C. in a 5% CO2 incubator. The supernatant was removed and 100 μL of 100% DMSO was added. The plates were gently shaken to solubilize the formed formazan. The absorbance was measured using a multireader (Victor2 (Wallac)) at a wavelength of 570 nm.

[4] = target: T1, Nav1.5 channel (Homo sapiens, UniProt Q14524); assay: Cardiotoxicity fluorescence-based assay, Nav1.5 channel; assay type: cell-based; conditions: HEK293 cells
T1 construct: expressed in transfected cells; host or cells: HEK293
Experimental: Fluorescence-based assays were performed using HEK293 cell lines that stably express the Nav1.5-channel, Cav1.2-channel or hERG K+-channel, using FMP Red Dye (Molecular Devices), calcium-sensitive fluorescent dye Fluo-4 (Invitrogen) and FIuxOR™ reagent (Invitrogen), respectively, and a FLIPR Tetra High-Throughput Cellular Screening System (Molecular Devices), according to manufacturer's protocols (Molecular Devices). Tetrodotoxin (TTX), israpidine and nicarpidine, and astemizole and haloperidol were used as standard sodium channel, calcium channel, and hERG channel blockers. Data were analyzed using Genedata Screener.

T1 sequence (Q14524 whole entry): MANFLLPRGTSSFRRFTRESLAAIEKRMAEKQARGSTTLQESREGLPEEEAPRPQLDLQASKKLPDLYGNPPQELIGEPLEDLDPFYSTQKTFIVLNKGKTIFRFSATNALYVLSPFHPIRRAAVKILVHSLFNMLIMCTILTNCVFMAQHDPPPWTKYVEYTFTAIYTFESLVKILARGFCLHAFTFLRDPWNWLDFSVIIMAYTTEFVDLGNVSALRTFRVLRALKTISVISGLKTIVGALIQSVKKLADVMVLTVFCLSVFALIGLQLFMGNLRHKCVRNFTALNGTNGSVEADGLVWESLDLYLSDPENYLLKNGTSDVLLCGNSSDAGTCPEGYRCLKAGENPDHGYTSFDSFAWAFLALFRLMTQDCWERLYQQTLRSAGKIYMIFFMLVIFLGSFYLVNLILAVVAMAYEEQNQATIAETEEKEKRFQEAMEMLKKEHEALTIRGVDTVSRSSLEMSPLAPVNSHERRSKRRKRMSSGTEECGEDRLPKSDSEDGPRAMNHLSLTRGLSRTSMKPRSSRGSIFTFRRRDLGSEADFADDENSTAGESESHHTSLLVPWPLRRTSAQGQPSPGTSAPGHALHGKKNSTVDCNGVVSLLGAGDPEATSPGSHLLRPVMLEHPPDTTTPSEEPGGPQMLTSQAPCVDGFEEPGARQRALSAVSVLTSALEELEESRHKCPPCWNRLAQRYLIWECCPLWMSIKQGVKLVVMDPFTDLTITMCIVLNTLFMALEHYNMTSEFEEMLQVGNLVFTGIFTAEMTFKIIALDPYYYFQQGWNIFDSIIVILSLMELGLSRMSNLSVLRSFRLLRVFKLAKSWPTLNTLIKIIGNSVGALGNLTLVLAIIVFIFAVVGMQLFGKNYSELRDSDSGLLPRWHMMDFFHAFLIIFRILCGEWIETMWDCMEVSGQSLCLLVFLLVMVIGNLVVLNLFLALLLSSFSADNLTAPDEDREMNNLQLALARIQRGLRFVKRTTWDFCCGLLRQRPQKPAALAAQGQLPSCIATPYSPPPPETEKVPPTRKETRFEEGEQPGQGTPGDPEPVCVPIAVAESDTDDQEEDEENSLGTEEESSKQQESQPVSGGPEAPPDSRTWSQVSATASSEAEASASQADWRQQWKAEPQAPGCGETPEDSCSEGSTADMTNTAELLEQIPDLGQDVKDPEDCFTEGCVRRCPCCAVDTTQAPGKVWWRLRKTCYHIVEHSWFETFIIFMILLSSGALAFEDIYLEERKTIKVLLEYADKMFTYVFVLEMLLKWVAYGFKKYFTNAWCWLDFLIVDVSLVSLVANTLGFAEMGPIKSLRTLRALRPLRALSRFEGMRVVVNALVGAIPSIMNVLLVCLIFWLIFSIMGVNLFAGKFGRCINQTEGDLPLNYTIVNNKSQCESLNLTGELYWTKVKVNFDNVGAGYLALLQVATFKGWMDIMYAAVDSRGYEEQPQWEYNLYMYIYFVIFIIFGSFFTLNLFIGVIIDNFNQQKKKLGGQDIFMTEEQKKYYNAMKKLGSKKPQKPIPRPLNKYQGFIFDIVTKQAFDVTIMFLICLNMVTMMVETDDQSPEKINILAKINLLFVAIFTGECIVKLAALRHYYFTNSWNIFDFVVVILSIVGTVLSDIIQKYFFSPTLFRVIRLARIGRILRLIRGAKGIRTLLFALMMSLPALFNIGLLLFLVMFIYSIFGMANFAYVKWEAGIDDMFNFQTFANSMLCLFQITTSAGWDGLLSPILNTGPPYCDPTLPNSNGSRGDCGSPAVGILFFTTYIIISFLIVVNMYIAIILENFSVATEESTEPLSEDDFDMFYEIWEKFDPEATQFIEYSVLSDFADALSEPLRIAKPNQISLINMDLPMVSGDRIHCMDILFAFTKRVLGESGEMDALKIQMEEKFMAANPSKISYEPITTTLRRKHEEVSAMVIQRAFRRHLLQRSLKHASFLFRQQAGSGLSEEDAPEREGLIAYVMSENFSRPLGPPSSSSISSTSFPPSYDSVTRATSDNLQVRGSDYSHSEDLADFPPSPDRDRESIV

Row | Compound | MTC (maximum tolerated concentration) [1] [µg/mL] | mean seizure duration ([2]; 40 mg/kg i.p.) [s] | mice protected against induced seizures ([2]; 40 mg/kg i.p.) | antiseizure activity ([2]; 20 and 10 mg/kg i.p.) | Cytotoxicity SHSY5Y cells, effect [3] | IC50 [3] [µM] | Cardiotoxicity Nav1.5 channel, effect [4] | IC50 [4] [µM] | antiseizure activity ([2]; 2.5 mg/kg i.p.) | mean seizure duration ([2]; 10 mg/kg i.p.) [s] | mice protected against induced seizures ([2]; 10 mg/kg i.p.)
1 | CCc1ccc(C2=C(C)C(=O)C3(O2)C(=O)NC(OC)(C(=O)c2ccccc2)C3O)o1 (stereo not drawn) [azaspirofuran A] | 12.5 | 24 | 5 out of 7 | no significant effects | Weak | > 50 | Low | 39.1 | – | – | –
2 | CC/C=C\[C@H](O)[C@H](O)C1=C(C)C(=O)[C@]2(O1)C(=O)N[C@](OC)(C(=O)c1ccccc1)[C@H]2O [pseurotin A2] | 12.5 | 26 | 4 out of 7 | – | Decrease | 17.9 | No effect | > 50 | inactive | 27 | 5 out of 6
